In series [1] the target is Plasmodium berghei circumsporozoite protein (CSP), full-length, high molecular weight form (Plasmodium berghei) (UniProt P23093). In words: cell-based or functional assay.
Series [2] concerns CSP cleavage in P. berghei sporozoites. The experiment in a line: Cell contact assay (CSP cleavage on contact with hepatocytes). The class given is cell-based, Plasmodium berghei. As to the method:
Hepa 1-6 cells were seeded on glass coverslips at a density of 2×10^5 cells per coverslip and grown until confluent. P. berghei sporozoites were incubated in DMEM±10 mM E-64 at 4° C. for two hours. Thirty minutes before sporozoites were added to coverslips, Cytochalasin D (CD) was added to all samples (final concentration, […]). Sporozoites were centrifuged onto coverslips (1250×g) for five minutes at 4° C. Coverslips were then brought to 37° C. for two minutes, fixed with 4% paraformaldehyde and stained with either mAb 3D11 followed by anti-mouse Ig FITC or the N-terminal antiserum (1:100) followed by anti-rabbit Ig FITC. […] As a control, sporozoites were spun onto coverslips without cells using the protocol outlined above.

For series [3], the system named is P. berghei sporozoites. The settings on record: sporozoites incubated with inhibitor for two hours, then metabolically labeled. Here is the method: Panel A illustrates P. berghei sporozoites were metabolically labeled with [35 S]-Cys/Met and then washed and kept on ice (lane 1) or chased with cold medium for two hours at 28° C., in the absence (lane 2) or presence of the indicated protease inhibitors (lanes 3-11). After the chase, sporozoites were lysed, CSP was immunoprecipitated and analyzed by SDS-PAGE and autoradiography (abbreviations: Apr, aprotinin; DCl, 3,4 DCl; Leu, leupeptin; Pep, pepstatin; Phen, 1,10 phenanthroline). Panel B illustrates P. falciparum sporozoites were metabolically labeled as above and then kept on ice (lane 1) or chased with cold medium for ninety minutes in the absence (lane 2) or presence of E-64 (lane 3). Samples were processed as outlined above. Panel C illustrates P. berghei sporozoites were preincubated with buffer (lane 1) or the indicated compounds, washed, metabolically labeled with [^35S]-Cys/Met, lysed, and CSP was immunoprecipitated and analyzed by SDS-PAGE and autoradiography. (Abbreviations: Az=sodium azide).
In addition to the above, pulse-chase metabolic labeling experiments were performed with sporozoites of the human malaria parasite, Plasmodium falciparum. […] In order to insure that the protease inhibitors were not toxic to sporozoites, sporozoites were incubated with the various inhibitors for two hours and then propidium iodide (hereinafter, “PI”) was added, which is a fluorescent molecule that enters permeabilized cells.

Series [4] deals with P. berghei sporozoites. The format is cell-based, Plasmodium berghei. The settings on record: sporozoites preincubated two hours with inhibitor, Hepa 1-6 cells, one hour. As to the method:
%invasion=total sporozites−extracellular sporozites×100/total sporozites
Invasion assays were performed as previously described (Pinzon-Ortiz, C., et al.) with some modifications. […] Cells were then washed, fixed, and sporozoites were stained with a double staining assay that distinguishes between intracellular and extracellular sporozoites (Renia, L., et al.). […]

The test system of series [5] is CSP processing in P. berghei sporozoites. In words: Pulse-chase metabolic labeling of CSP processing, P. berghei sporozoites. The format is cell-based, Plasmodium berghei. As to conditions: two hour chase at 28° C.; 10 mM E-64, 1 mM PMSF, 0.3 mM aprotinin, 100 mM 3,4 DCl, 75 mM leupeptin, 100 mM TLCK, 1 mM pepstatin, 1 mM 1,10 phenanthroline, 5 mM EDTA. Here is the method: P. berghei sporozoites were incubated in Dulbecco's Modified Eagle Medium (DMEM; Invitrogen, Carlsbad, Calif.) without cysteine (Cys) and methionine (Met), containing 1% BSA and […] L-[35 S]-Cys/Met (Pro-Mix, Amersham Pharmacia) in a total volume of 200 μl for one hour at 28° C. They were then washed and resuspended in DMEM/BSA containing unlabeled Cys/Met at 28° C. for the indicated time in the presence or absence of the indicated protease inhibitor. Sporozoites were then lysed and CSP was immunoprecipitated and analyzed by autoradiography as outlined below.
When sporozoites were incubated with specific inhibitors, their concentrations were as follows: 10 […] E-64; 1 mM phenylmethylsulfonyl fluoride (PMSF); 0.3 mM aprotinin; 100 mM 3,4 DCl; 75 mM leupeptin; 100 mM TLCK; 1 mM pepstatin; 1 mM 1,10 phenanthroline; 5 mM EDTA; 0.5% sodium azide. To check for toxicity by propidium iodide (PI) staining, P. berghei sporozoites were incubated in the presence or absence of the various protease inhibitors for two hours at 28° C., PI was then added to a final concentration of […] for five minutes at 28° C. The sporozoites were washed and viewed under a fluorescent microscope.
Metabolically-labeled sporozoites were lysed in lysis buffer (1% Triton X-100, 50 mM Tris-HCl pH 8.0) with 150 mM NaCl containing a protease inhibitor cocktail (Complete Mini-Tablets, Roche) for one hour at 4° C. The lysates were incubated with mAb 3D11 conjugated to agarose overnight at 4° C. with agitation, and the beads were then washed sequentially with lysis buffer containing 150 mM NaCl, high salt buffer (500 mM NaCl in lysis buffer), lysis buffer without added NaCl, and pre-elution buffer (0.5% Triton X-100, 10 mM Tris-HCl pH 6.8). CSP was eluted with 1% SDS in 0.1 M glycine pH 1.8, neutralized with 1.5 M Tris-HCl pH 8.8, and run on a 7.5% SDS-polyacrylamide gel under nonreducing conditions.
P. berghei sporozoites were metabolically labeled as previously described (Bruna-Romero, O., et al.). Briefly, sporozoites were labeled in Dulbecco's Modified Eagle Medium containing 1% BSA (DMEM/BSA) without Cys/Met and with 400 μCi/ml L-[^35S]Cys/Met for one hour at 28° C. and chased in DMEM/BSA with Cys/Met at 28° C. in the presence of 10 μM E-64 or the indicated concentrations of allicin. Labeled sporozoites were lysed in 1% Triton X-100/150 mM NaCl/50 mM Tris-HCl pH 8.0 with protease inhibitors, and lysates were incubated with 3D11-sepharose overnight at 4° C. CSP was eluted with 1% SDS in 0.1 M glycine pH 1.8, neutralized with Tris-HCl pH 8.8, and run on a 7.5% SDS-polyacrylamide gel under nonreducing conditions. The gel was fixed, enhanced with Amplify (Amersham Pharmacia), dried and exposed to film.
P. berghei sporozoites were metabolically labeled in DMEM without Cys/Met, 1% BSA and 400 μCi/ml L-[^355]-Cys/Met for 1 hour at 28° C. and then kept on ice or chased at 28° C. for the indicated times. Details of this procedure are outlined in (Coppi et al., 2005). To investigate the kinetics of processing in the presence of hepatocytes, sporozoites were labeled as above, chased at 28° C. for 1 hour and then centrifuged (300×g) onto glass coverslips with Hepa 1-6 cells and incubated at 37° C. for 5, 15 or 30 minutes. To investigate the effect of antibodies on CSP cleavage, sporozoites were labeled as above and then chased for 2 hours in the presence of the indicated antibody. Monoclonal antibodies were used as purified antibodies at the indicated concentrations and the IgG fraction of the NH2-terminal antiserum was used after isolation by Protein A (Vivapure maxiprepA; Sartorius, Edgewood, N.Y.). In all cases, labeled sporozoites (with or without Hepa 1-6 cells) were lysed and labeled CSP was immunoprecipitated with mAb-3D11 conjugated to sepharose or in the case of P. falciparum CSP, with mAb-2A10 conjugated to sepharose, as previously described (Coppi et al., 2005). CSP was eluted from the beads, run on an SDS-PAGE gel which was enhanced, dried and exposed to film. […]

Non-standard residues stand in square brackets, D forms with d. Residues, ends and D or L forms follow the SMILES beside them. *: point of attachment. Sta = CC(C)C[C@H](N)[C@@H](O)CC(=O)O; Isovaleryl = CC(C)CC(=O)*

Take mAb 3D11 (antibody): the inhibition of CSP cleavage at 10 µg/ml, pulse-chase metabolic labeling in series [1] is 50 to 75%.
As for `C=C1[C@@H](C)[C@H]2[C@H](Cc3ccccc3)NC(=O)[C@]23[C@H](OC(C)=O)/C=C/[C@@](C)(O)C(=O)[C@@H](C)C/C=C/[C@H]3[C@@H]1O` [CD, cytochalasin D], in series [2] (experiment 1, no cells, visualized with α-N), the “percentage staining with the N-terminal antiserum” value is reported as 85% ± 1.1. Moreover, the “Number of Sporozoites Visualized” value in series [2] (experiment 1, wildtype sporozoites, Hepa 1-6, visualized with 3D11) is given as 244 ± 3; in series [2] (experiment 2, GFP sporozoites, Hepa 1-6, visualized by GFP), 452 ± 8; in series [2] (experiment 2, GFP sporozoites, Hepa 1-6, visualized with α-N) it was 98 ± 2.
With `O=S(=O)(F)Cc1ccccc1` [PMSF, phenylmethylsulfonyl fluoride], in the series on P. berghei sporozoites [3], the “CSP synthesis after incubation with inhibitor” value was “not affected”. In addition, the “effect on sporozoite invasion” value with P. berghei sporozoites [4] was “had inhibitory activity”. The “effect on CSP processing” value in series [5] is “inhibited CSP processing”.
As to `Cc1ccc(S(=O)(=O)N[C@@H](CCCCN)C(=O)CCl)cc1` [TLCK], the “effect on CSP processing” value in series [5] is “inhibited CSP processing”.
Take aprotinin: the “effect on sporozoite invasion” value in the series on P. berghei sporozoites [4] was “did not have significant inhibitory activity on invasion”. Further, the “effect on CSP processing” value in series [5] is listed as “Neither compound had an effect on CSP processing”.
On to `O=C(O)CN(CCN(CC(=O)O)CC(=O)O)CC(=O)O` [EDTA], for which the “effect on CSP processing” value in series [5] is recorded as “no effect on CSP processing”.
Take `CC(C)CC(=O)N[C@H](C(=O)N[C@H](C(=O)N[C@@H](CC(C)C)[C@@H](O)CC(=O)N[C@@H](C)C(=O)N[C@@H](CC(C)C)[C@@H](O)CC(=O)O)C(C)C)C(C)C` [pepstatin] (Isovaleryl-VV[Sta]A[Sta]-OH): the “effect on sporozoite invasion” value with P. berghei sporozoites [4] is reported as “no effect on invasion”. In addition, the “effect on CSP processing” value in series [5] is given as “no effect on CSP processing”.
Take `c1cnc2c(c1)ccc1cccnc12` [1,10 phenanthroline]: the “effect on CSP processing” value in series [5] is “no effect on CSP processing”.
For `O=c1oc(Cl)c(Cl)c2ccccc12` [3,4 DCl, 3,4-dichloroisocoumarin], the “effect on sporozoite invasion” value in the series on P. berghei sporozoites [4] is on record as “did not have significant inhibitory activity on invasion”. Also, in series [5], the “effect on CSP processing” value is “Neither compound had an effect on CSP processing”.
For the molecule `CC(=O)N[C@@H](CC(C)C)C(=O)N[C@@H](CC(C)C)C(=O)N[C@H](C=O)CCCNC(=N)N` [leupeptin], the “CSP synthesis after incubation with inhibitor” value in the series with P. berghei sporozoites [3] is on record as “not affected”. Moreover, the “effect on sporozoite invasion” value with P. berghei sporozoites [4] is “had inhibitory activity”. In addition, the “effect on CSP processing” value in series [5] is “inhibited CSP processing”.

(Values after patent US20130022612A1, “METHODS AND COMPOSITIONS FOR MALARIA PROPHYLAXIS” (priority 2004, published 2013).)
